Assay results reported in ChEMBL document CHEMBL4390652, “Design, biological evaluation and X-ray crystallography of nanomolar multifunctional ligands targeting simultaneously acetylcholinesterase and glycogen synthase kinase-3” (Eur J Med Chem, 2019).

Legend:
[1] = target: cGMP-dependent protein kinase 2 (Homo sapiens) (UniProt Q13237); assay: Binding affinity to wild-type human partial length PRKG2 (S422 to F762 residues) expressed in mammalian expression system assessed as residual binding level at 10 uM by Kinomescan method relative to control
[2] = target: Membrane-associated tyrosine- and threonine-specific cdc2-inhibitory kinase (Homo sapiens) (UniProt Q99640); assay: Binding affinity to wild-type human partial length PKMYT1 (A88 to G366 residues) expressed in bacterial expression system assessed as residual binding level at 10 uM by Kinomescan method relative to control
Chain of Membrane-associated tyrosine- and threonine-specific cdc2-inhibitory kinase (Homo sapiens) (Q99640 whole entry, the tested form may be a part): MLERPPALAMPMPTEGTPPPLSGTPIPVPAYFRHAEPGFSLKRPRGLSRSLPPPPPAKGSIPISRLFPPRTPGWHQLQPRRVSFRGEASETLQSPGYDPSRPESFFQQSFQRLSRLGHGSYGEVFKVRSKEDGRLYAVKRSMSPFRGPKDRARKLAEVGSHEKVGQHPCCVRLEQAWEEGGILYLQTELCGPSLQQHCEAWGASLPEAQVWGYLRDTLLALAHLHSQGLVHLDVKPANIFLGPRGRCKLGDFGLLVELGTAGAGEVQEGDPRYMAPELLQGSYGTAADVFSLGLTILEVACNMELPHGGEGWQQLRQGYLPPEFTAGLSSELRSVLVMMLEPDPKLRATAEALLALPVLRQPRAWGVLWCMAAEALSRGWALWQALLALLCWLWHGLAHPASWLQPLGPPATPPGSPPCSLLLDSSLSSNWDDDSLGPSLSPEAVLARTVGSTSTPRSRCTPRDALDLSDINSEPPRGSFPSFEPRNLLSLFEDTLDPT

[3] = target: Serine/threonine-protein kinase 3 (Homo sapiens) (UniProt Q13188); assay: Binding affinity to wild-type human partial length MST2 (D17 to E318 residues) expressed in bacterial expression system assessed as residual binding level at 10 uM by Kinomescan method relative to control
[4] = target: Serine/threonine-protein kinase D3 (Homo sapiens) (UniProt O94806); assay: Binding affinity to wild-type human partial length PRKD3 (S543 to E863 residues) expressed in bacterial expression system assessed as residual binding level at 10 uM by Kinomescan method relative to control
[5] = target: Ephrin type-B receptor 2 (Homo sapiens) (UniProt P29323); assay: Binding affinity to wild-type human partial length EPHB2 (I597 to L902 residues) expressed in bacterial expression system assessed as residual binding level at 10 uM by Kinomescan method relative to control
[6] = target: Tyrosine-protein kinase JAK3 (Homo sapiens) (UniProt P52333); assay: Binding affinity to wild-type human partial length JAK3 JH1 catalytic domain (I781 to S1124 residues) expressed in mammalian expression system assessed as residual binding level at 10 uM by Kinomescan method relative to control
[7] = target: Dual specificity mitogen-activated protein kinase kinase 7 (Homo sapiens) (UniProt O14733); assay: Binding affinity to wild-type human full length MKK7 (M1 to R419 residues) expressed in mammalian expression system assessed as residual binding level at 10 uM by Kinomescan method relative to control
[8] = target: Protein kinase C eta type (Homo sapiens) (UniProt P24723); assay: Binding affinity to wild-type human partial length PRKCH (S324 to P683 residues) expressed in bacterial expression system assessed as residual binding level at 10 uM by Kinomescan method relative to control
[9] = system: Mast/stem cell growth factor receptor Kit (Homo sapiens), P10721 [A829P]; assay: Binding affinity to human partial length KIT A829P mutant (I571 to D952 residues) expressed in mammalian expression system assessed as residual binding level at 10 uM by Kinomescan method relative to control
[10] = target: Tyrosine-protein kinase receptor TYRO3 (Homo sapiens) (UniProt Q06418); assay: Binding affinity to wild-type human partial length TYRO3 (S497 to T814 residues) expressed in bacterial expression system assessed as residual binding level at 10 uM by Kinomescan method relative to control
Chain of Tyrosine-protein kinase receptor TYRO3 (Homo sapiens) (Q06418 whole entry, the tested form may be a part): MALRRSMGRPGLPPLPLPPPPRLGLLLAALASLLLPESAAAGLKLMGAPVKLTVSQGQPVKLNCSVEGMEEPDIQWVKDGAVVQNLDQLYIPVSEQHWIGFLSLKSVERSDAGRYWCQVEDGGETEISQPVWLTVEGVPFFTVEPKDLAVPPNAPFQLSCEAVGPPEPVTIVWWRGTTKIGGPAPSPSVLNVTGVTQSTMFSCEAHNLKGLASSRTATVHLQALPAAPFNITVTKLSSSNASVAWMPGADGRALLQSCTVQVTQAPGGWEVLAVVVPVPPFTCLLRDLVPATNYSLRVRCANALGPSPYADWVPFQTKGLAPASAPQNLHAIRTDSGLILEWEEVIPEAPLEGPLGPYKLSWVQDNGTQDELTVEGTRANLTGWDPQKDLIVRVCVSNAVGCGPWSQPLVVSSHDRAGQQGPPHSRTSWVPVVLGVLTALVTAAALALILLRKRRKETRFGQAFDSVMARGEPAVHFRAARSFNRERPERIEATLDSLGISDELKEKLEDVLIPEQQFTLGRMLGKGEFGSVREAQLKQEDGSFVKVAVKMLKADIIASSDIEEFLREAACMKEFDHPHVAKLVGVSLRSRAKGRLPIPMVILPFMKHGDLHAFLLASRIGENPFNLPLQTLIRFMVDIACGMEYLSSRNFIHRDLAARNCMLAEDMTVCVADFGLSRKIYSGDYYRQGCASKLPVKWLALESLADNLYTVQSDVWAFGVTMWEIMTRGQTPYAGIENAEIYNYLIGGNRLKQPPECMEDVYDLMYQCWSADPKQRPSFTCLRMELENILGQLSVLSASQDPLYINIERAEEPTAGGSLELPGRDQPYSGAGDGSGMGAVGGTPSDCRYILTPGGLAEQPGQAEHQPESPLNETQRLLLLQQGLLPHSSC

[11] = target: Death-associated protein kinase 1 (Homo sapiens) (UniProt P53355); assay: Binding affinity to wild-type human partial length DAPK1 (M1 to F296 residues) expressed in bacterial expression system assessed as residual binding level at 10 uM by Kinomescan method relative to control
Chain of Death-associated protein kinase 1 (Homo sapiens) (P53355 whole entry, looked up, the tested form may be a part): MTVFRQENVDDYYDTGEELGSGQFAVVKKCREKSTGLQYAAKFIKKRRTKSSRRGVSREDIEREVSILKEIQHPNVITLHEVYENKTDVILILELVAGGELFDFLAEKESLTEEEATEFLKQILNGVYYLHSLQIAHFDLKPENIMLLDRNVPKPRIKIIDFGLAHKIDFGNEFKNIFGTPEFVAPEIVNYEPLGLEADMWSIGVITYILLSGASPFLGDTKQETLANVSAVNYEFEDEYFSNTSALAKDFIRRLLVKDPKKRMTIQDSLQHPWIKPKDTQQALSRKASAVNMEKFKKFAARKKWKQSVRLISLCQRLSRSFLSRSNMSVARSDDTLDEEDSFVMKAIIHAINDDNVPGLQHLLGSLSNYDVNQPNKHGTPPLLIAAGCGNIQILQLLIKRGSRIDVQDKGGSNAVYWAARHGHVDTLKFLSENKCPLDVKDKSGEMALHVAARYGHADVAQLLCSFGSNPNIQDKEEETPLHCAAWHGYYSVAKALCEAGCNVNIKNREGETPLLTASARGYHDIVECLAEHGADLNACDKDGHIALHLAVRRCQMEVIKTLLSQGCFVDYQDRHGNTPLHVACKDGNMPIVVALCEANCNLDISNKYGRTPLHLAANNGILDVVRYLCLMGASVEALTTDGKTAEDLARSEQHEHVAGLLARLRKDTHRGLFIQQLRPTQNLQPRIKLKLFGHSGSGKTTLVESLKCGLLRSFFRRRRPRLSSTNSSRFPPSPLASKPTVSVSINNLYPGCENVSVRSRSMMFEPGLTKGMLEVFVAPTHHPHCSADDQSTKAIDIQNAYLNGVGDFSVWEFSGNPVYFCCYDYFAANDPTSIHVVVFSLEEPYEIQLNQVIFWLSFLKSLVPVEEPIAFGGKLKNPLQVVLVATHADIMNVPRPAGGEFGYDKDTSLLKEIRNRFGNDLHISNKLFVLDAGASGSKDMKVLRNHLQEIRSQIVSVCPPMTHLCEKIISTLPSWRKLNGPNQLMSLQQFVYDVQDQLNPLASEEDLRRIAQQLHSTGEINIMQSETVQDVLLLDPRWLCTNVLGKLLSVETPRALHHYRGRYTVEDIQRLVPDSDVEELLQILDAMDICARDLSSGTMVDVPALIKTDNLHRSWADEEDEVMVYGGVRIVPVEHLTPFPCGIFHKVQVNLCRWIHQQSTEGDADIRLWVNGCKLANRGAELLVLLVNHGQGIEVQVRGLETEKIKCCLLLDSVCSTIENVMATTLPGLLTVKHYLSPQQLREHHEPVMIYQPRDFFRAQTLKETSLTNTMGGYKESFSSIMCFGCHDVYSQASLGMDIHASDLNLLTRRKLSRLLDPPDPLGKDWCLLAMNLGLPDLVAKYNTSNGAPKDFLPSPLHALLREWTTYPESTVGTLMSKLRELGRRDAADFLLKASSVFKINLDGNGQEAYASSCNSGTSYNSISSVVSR

[12] = target: MAP/microtubule affinity-regulating kinase 4 (Homo sapiens) (UniProt Q96L34); assay: Binding affinity to wild-type human partial length MARK4 (K29 to G340 residues) expressed in bacterial expression system assessed as residual binding level at 10 uM by Kinomescan method relative to control
[13] = system: Receptor-type tyrosine-protein kinase FLT3 (Homo sapiens), P36888 [D835H]; assay: Binding affinity to human partial length FLT3 D835H mutant (V592 to Y969 residues) expressed in bacterial expression system assessed as residual binding level at 10 uM by Kinomescan method relative to control
[14] = target: Serine/threonine-protein kinase Sgk2 (Homo sapiens) (UniProt Q9HBY8); assay: Binding affinity to wild-type human partial length SGK2 (L54 to C427 residues) expressed in mammalian expression system assessed as residual binding level at 10 uM by Kinomescan method relative to control
Chain of Serine/threonine-protein kinase Sgk2 (Homo sapiens) (Q9HBY8 whole entry, the tested form may be a part, canonical isoform): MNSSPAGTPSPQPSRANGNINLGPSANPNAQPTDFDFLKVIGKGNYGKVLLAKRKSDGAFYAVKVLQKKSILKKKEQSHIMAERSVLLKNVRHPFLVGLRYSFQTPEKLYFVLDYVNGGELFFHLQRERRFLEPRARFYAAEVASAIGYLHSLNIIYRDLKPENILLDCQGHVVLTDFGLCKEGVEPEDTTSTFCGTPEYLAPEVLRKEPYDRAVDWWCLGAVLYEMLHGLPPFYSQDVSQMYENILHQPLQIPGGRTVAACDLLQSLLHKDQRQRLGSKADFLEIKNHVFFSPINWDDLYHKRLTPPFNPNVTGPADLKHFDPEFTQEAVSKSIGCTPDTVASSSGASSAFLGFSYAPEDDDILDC

[15] = target: Casein kinase I isoform gamma-1 (Homo sapiens) (UniProt Q9HCP0); assay: Binding affinity to wild-type human partial length CSNK1G1 (T15 to S353 residues) expressed in bacterial expression system assessed as residual binding level at 10 uM by Kinomescan method relative to control
Chain of Casein kinase I isoform gamma-1 (Homo sapiens) (Q9HCP0 whole entry, looked up, the tested form may be a part, canonical isoform): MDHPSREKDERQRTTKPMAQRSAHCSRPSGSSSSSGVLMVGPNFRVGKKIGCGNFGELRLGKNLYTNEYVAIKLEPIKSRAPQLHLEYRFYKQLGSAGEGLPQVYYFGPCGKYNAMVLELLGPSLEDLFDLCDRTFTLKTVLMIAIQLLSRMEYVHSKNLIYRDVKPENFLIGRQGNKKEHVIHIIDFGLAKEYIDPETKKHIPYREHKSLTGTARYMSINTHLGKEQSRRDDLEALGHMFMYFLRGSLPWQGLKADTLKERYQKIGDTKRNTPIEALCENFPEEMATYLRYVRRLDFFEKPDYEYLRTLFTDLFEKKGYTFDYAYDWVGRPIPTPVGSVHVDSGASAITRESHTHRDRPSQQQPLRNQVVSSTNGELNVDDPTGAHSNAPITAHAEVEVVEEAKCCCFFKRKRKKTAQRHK

[16] = target: Myosin light chain kinase family member 4 (Homo sapiens) (UniProt Q86YV6); assay: Binding affinity to wild-type human partial length MYLK4 (V79 to S380 residues) expressed in bacterial expression system assessed as residual binding level at 10 uM by Kinomescan method relative to control
[17] = target: Ribosomal protein S6 kinase alpha-4 (Homo sapiens) (UniProt O75676); assay: Binding affinity to wild-type human partial length C-terminal RPS6KA4 kinase domain 2 (M375 to T705 residues) expressed in mammalian expression system assessed as residual binding level at 10 uM by Kinomescan method relative to control
[18] = target: Ribosomal protein S6 kinase alpha-2 (Homo sapiens) (UniProt Q15349); assay: Binding affinity to wild-type human partial length C-terminal RSK3 kinase domain 2 (V403 to K700 residues) expressed in bacterial expression system assessed as residual binding level at 10 uM by Kinomescan method relative to control
[19] = target: Macrophage colony-stimulating factor 1 receptor (Homo sapiens) (UniProt P07333); assay: Binding affinity to wild-type human partial length autoinhibited CSF1R (Y538 to S939 residues) expressed in mammalian expression system assessed as residual binding level at 10 uM by Kinomescan method relative to control
[20] = target: Ephrin type-B receptor 3 (Homo sapiens) (UniProt P54753); assay: Binding affinity to wild-type human partial length EPHB3 (Q599 to T928 residues) expressed in bacterial expression system assessed as residual binding level at 10 uM by Kinomescan method relative to control
[21] = target: TRAF2 and NCK-interacting protein kinase (Homo sapiens) (UniProt Q9UKE5); assay: Binding affinity to wild-type human partial length TNIK (D4 to K311 residues) expressed in bacterial expression system assessed as residual binding level at 10 uM by Kinomescan method relative to control
Chain of TRAF2 and NCK-interacting protein kinase (Homo sapiens) (Q9UKE5 whole entry, looked up, the tested form may be a part): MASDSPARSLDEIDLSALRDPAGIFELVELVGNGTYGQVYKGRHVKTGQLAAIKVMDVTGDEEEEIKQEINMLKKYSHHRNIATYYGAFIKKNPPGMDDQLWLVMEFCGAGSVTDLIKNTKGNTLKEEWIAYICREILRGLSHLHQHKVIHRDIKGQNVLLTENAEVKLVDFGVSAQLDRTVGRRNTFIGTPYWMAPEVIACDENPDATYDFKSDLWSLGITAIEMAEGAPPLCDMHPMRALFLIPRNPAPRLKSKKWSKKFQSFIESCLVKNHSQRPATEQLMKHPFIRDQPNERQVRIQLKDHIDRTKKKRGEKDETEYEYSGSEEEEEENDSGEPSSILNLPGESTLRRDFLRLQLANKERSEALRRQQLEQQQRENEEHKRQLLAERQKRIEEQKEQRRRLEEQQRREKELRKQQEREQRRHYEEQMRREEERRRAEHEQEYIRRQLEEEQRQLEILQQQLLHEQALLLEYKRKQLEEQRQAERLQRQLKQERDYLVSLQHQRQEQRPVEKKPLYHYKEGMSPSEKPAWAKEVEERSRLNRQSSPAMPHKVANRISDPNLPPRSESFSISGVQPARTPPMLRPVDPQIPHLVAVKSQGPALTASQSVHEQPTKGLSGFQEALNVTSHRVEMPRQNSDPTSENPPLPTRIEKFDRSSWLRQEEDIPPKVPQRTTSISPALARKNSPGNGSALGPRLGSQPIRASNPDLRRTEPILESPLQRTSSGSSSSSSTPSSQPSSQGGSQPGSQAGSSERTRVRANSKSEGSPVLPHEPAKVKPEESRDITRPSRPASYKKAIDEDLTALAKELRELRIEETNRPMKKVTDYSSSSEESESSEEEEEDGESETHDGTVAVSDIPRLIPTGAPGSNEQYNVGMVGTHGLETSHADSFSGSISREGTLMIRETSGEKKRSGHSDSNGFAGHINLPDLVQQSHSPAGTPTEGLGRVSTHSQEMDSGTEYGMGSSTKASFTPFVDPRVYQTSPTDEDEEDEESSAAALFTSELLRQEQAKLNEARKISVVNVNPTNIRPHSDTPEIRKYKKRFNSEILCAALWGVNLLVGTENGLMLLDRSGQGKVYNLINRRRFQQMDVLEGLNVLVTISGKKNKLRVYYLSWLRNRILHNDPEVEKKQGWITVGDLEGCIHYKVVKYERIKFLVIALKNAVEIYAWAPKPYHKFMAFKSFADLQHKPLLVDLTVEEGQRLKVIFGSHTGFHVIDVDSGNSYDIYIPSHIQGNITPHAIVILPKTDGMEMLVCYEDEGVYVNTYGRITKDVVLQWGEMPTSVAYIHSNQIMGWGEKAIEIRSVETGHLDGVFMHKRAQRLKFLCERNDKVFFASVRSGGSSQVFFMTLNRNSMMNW

[22] = target: Cyclin-dependent kinase 19 (Homo sapiens) (UniProt Q9BWU1); assay: Binding affinity to wild-type human partial length CDK11 (M1 to N360 residues) expressed in bacterial expression system assessed as residual binding level at 10 uM by Kinomescan method relative to control
[23] = target: Ephrin type-A receptor 3 (Homo sapiens) (UniProt P29320); assay: Binding affinity to wild-type human partial length EPHA3 (D604 to K889 residues) expressed in bacterial expression system assessed as residual binding level at 10 uM by Kinomescan method relative to control
[24] = target: Cyclin-dependent kinase 16 (Homo sapiens) (UniProt Q00536); assay: Binding affinity to wild-type human partial length PCTK1 (G160 to A474 residues) expressed in mammalian expression system assessed as residual binding level at 10 uM by Kinomescan method relative to control

## O=C(Nc1cc(-c2cn(CCNc3c4c(nc5ccccc35)CCCC4)nn2)ccn1)Nc1cccc2c1C1CCCCN1C2=O (racemic)
[1]
  Activity: 4.4%
[2]
  Activity: 90%
[3]
  Activity: 21%
[4]
  Activity: 12%
[5]
  Activity: 61%
[6]
  Activity: 0.28%
[7]
  Activity: 100%
[8]
  Activity: 3.9%
[9]
  Activity: 3.9%
[10]
  Activity: 96%
[11]
  Activity: 68%
[12]
  Activity: 35%
[13]
  Activity: 3.4%
[14]
  Activity: 10%
[15]
  Activity: 63%
[16]
  Activity: 0%
[17]
  Activity: 69%
[18]
  Activity: 74%
[19]
  Activity: 0.54%
[20]
  Activity: 100%
[21]
  Activity: 48%
[22]
  Activity: 94%
[23]
  Activity: 77%
[24]
  Activity: 4.3%
